Experimental data taken from ChEMBL document CHEMBL1152890, “Synthesis and evaluation of a novel series of heterocyclic oleanolic acid derivatives with anti-osteoclast formation activity” (Eur J Med Chem, 2009).

Assays:
[1] = Antiosteoclast activity in ICR mouse osteoblast like cells co-cultured with bone marrow cells assessed as effect on 1-alpha,25(OH)2D3-induced TRAP-positive osteoclast like multinucleated cell formation at 20 uM after 6 days medium replaced every 2 days relative to control; type: functional
[2] = Antiosteoclast activity in ICR mouse osteoblast like cells co-cultured with bone marrow cells assessed as effect on 1-alpha,25(OH)2D3-induced TRAP-positive osteoclast like multinucleated cell formation at 2 uM after 6 days medium replaced every 2 days relative to control; type: functional
[3] = Antiosteoclast activity in ICR mouse osteoblast like cells co-cultured with bone marrow cells assessed as effect on 1-alpha,25(OH)2D3-induced TRAP-positive osteoclast like multinucleated cell formation at 200 uM after 6 days medium replaced every 2 days relative to control; type: functional
[4] = Antiosteoclast activity in ICR mouse osteoblast like cells co-cultured with bone marrow cells assessed as recovery of 1-alpha,25(OH)2D3-induced TRAP-positive osteoclast like multinucleated cell formation at 2 uM after 6 days drug removal after 2 days relative to control; type: functional
[5] = Antiosteoclast activity in ICR mouse osteoblast like cells co-cultured with bone marrow cells assessed as recovery of 1-alpha,25(OH)2D3-induced TRAP-positive osteoclast like multinucleated cell formation at 20 uM after 6 days drug removal after 2 days relative to control; type: functional
[6] = Cytotoxicity against ICR mouse osteoblast like cells assessed as cell viability at 2 uM after 4 days drug removal after 2 days by MTT assay relative to control; type: cell-based; details: read-out: Activity

Row | SMILES | Activity [1] | Activity [2] | Activity [3] | Activity [4] | Activity [5] | viability at 96 h, 2 µM [6]
1 | CC[C@H](C)[C@H](NC(=O)[C@]12CCC(C)(C)C[C@H]1C1=CC[C@@H]3[C@@]4(C)Cc5nccnc5C(C)(C)[C@@H]4CC[C@@]3(C)[C@]1(C)CC2)C(=O)OC | 0.7% | 0.7% | 101% | 96.2% | – | –
2 | NCCCC(O)(P(=O)([O-])O)P(=O)(O)O.[Na+] [ALENDRONATE SODIUM] | 0% | 3.5% | 47.5% | – | – | –
3 | COC(=O)[C@H](Cc1ccccc1)NC(=O)[C@]12CCC(C)(C)C[C@H]1C1=CC[C@@H]3[C@@]4(C)Cc5nc6ccccc6nc5C(C)(C)[C@@H]4CC[C@@]3(C)[C@]1(C)CC2 | 34.2% | 53.6% | 93% | – | 93.5% | –
4 | CC1(C)CC[C@]2(C(=O)O)CC[C@]3(C)C(=CC[C@@H]4[C@@]5(C)Cc6cc7ccccc7nc6C(C)(C)[C@@H]5CC[C@]43C)[C@@H]2C1 | 33.2% | 39.2% | 97.2% | 73% | 18.9% | 134%
5 | COC(=O)[C@H](Cc1ccccc1)NC(=O)[C@]12CCC(C)(C)C[C@H]1C1=CC[C@@H]3[C@@]4(C)Cc5nccnc5C(C)(C)[C@@H]4CC[C@@]3(C)[C@]1(C)CC2 | 29.6% | 82.8% | – | 95.6% | 89.5% | –
6 | CC1(C)CC[C@]2(C(=O)O)CC[C@]3(C)C(=CC[C@@H]4[C@@]5(C)CC[C@H](O)C(C)(C)[C@@H]5CC[C@]43C)[C@@H]2C1 [OLEANOLIC_ACID] | 19.4% | 89.5% | 97.5% | – | 98% | –
7 | COC(=O)CNC(=O)[C@]12CCC(C)(C)C[C@H]1C1=CC[C@@H]3[C@@]4(C)Cc5c([nH]c6ccccc56)C(C)(C)[C@@H]4CC[C@@]3(C)[C@]1(C)CC2 | 0% | 32.3% | 86.3% | 96.1% | 82.9% | –
8 | COC(=O)[C@@H](NC(=O)[C@]12CCC(C)(C)C[C@H]1C1=CC[C@@H]3[C@@]4(C)Cc5nc6ccccc6nc5C(C)(C)[C@@H]4CC[C@@]3(C)[C@]1(C)CC2)C(C)C | 36.3% | 37.1% | 93% | – | 94.6% | –
9 | CC(C)[C@H](NC(=O)[C@]12CCC(C)(C)C[C@H]1C1=CC[C@@H]3[C@@]4(C)Cc5c([nH]c6ccc(Cl)cc56)C(C)(C)[C@@H]4CC[C@@]3(C)[C@]1(C)CC2)C(=O)O | 0% | 80% | – | – | 0% | –
10 | COC(=O)[C@H](C)NC(=O)[C@]12CCC(C)(C)C[C@H]1C1=CC[C@@H]3[C@@]4(C)Cc5nccnc5C(C)(C)[C@@H]4CC[C@@]3(C)[C@]1(C)CC2 | 3.4% | 3.8% | 93.7% | 96.1% | – | –
11 | CC1(C)CC[C@]2(C(=O)O)CC[C@]3(C)C(=CC[C@@H]4[C@@]5(C)Cc6nc(-c7ccccc7)c(-c7ccccc7)nc6C(C)(C)[C@@H]5CC[C@]43C)[C@@H]2C1 | 28.1% | 76.2% | – | – | 94.5% | –
12 | CC(C)[C@H](NC(=O)[C@]12CCC(C)(C)C[C@H]1C1=CC[C@@H]3[C@@]4(C)Cc5nc6ccccc6nc5C(C)(C)[C@@H]4CC[C@@]3(C)[C@]1(C)CC2)C(=O)O | 42.8% | 47.3% | 57.5% | 70.6% | – | 128%
13 | COC(=O)[C@H](C)NC(=O)[C@]12CCC(C)(C)C[C@H]1C1=CC[C@@H]3[C@@]4(C)Cc5c([nH]c6ccccc56)C(C)(C)[C@@H]4CC[C@@]3(C)[C@]1(C)CC2 | 0% | 99.4% | – | – | 81.5% | –
14 | COC(=O)CNC(=O)[C@]12CCC(C)(C)C[C@H]1C1=CC[C@@H]3[C@@]4(C)Cc5nc6ccccc6nc5C(C)(C)[C@@H]4CC[C@@]3(C)[C@]1(C)CC2 | 20.7% | 31.9% | 34.1% | – | 94.3% | –
15 | CC(C)C[C@H](NC(=O)[C@]12CCC(C)(C)C[C@H]1C1=CC[C@@H]3[C@@]4(C)Cc5c([nH]c6ccc(Cl)cc56)C(C)(C)[C@@H]4CC[C@@]3(C)[C@]1(C)CC2)C(=O)O | 0% | 71.6% | – | – | 0% | –
16 | COC(=O)CNC(=O)[C@]12CCC(C)(C)C[C@H]1C1=CC[C@@H]3[C@@]4(C)CCC(=O)C(C)(C)[C@@H]4CC[C@@]3(C)[C@]1(C)CC2 | 0% | 27.2% | 31.7% | 73.9% | 41.3% | 141%
17 | CC[C@H](C)[C@H](NC(=O)[C@]12CCC(C)(C)C[C@H]1C1=CC[C@@H]3[C@@]4(C)Cc5nc6ccccc6nc5C(C)(C)[C@@H]4CC[C@@]3(C)[C@]1(C)CC2)C(=O)O | 30.6% | 58.7% | 95% | – | 94.7% | –
18 | COC(=O)[C@H](CC(C)C)NC(=O)[C@]12CCC(C)(C)C[C@H]1C1=CC[C@@H]3[C@@]4(C)Cc5nccnc5C(C)(C)[C@@H]4CC[C@@]3(C)[C@]1(C)CC2 | 2.8% | 1.7% | 96.4% | 95.7% | – | –
19 | CC1(C)CC[C@]2(C(=O)O)CC[C@]3(C)C(=CC[C@@H]4[C@@]5(C)Cc6c([nH]c7ccc(Cl)cc67)C(C)(C)[C@@H]5CC[C@]43C)[C@@H]2C1 | 0% | 13% | 99.5% | 73.3% | 0% | 132%
20 | CC(C)C[C@H](NC(=O)[C@]12CCC(C)(C)C[C@H]1C1=CC[C@@H]3[C@@]4(C)Cc5nc6ccccc6nc5C(C)(C)[C@@H]4CC[C@@]3(C)[C@]1(C)CC2)C(=O)O | 45.9% | 58.3% | 86.3% | – | 92.3% | –
21 | CC(C)C[C@H](NC(=O)[C@]12CCC(C)(C)C[C@H]1C1=CC[C@@H]3[C@@]4(C)Cc5nccnc5C(C)(C)[C@@H]4CC[C@@]3(C)[C@]1(C)CC2)C(=O)O | 44.8% | 21.2% | 100.2% | 93.9% | – | –
22 | C[C@H](NC(=O)[C@]12CCC(C)(C)C[C@H]1C1=CC[C@@H]3[C@@]4(C)Cc5c([nH]c6ccc(Cl)cc56)C(C)(C)[C@@H]4CC[C@@]3(C)[C@]1(C)CC2)C(=O)O | 0% | 1.4% | 98.3% | 93.4% | 0% | –
23 | CC1(C)CC[C@]2(C(=O)O)CC[C@]3(C)C(=CC[C@@H]4[C@@]5(C)Cc6c([nH]c7ccc([N+](=O)[O-])cc67)C(C)(C)[C@@H]5CC[C@]43C)[C@@H]2C1 | 0% | 83% | – | – | 38.6% | –
24 | COC(=O)[C@@H](NC(=O)[C@]12CCC(C)(C)C[C@H]1C1=CC[C@@H]3[C@@]4(C)Cc5nccnc5C(C)(C)[C@@H]4CC[C@@]3(C)[C@]1(C)CC2)C(C)C | 27.8% | 59.8% | 78.4% | 77.6% | 73.1% | 142%
25 | COC(=O)[C@H](CC(C)C)NC(=O)[C@]12CCC(C)(C)C[C@H]1C1=CC[C@@H]3[C@@]4(C)Cc5nc6ccccc6nc5C(C)(C)[C@@H]4CC[C@@]3(C)[C@]1(C)CC2 | 14% | 55.1% | 91.2% | – | 97.3% | –
26 | CC1(C)CC[C@]2(C(=O)N[C@@H](Cc3ccccc3)C(=O)O)CC[C@]3(C)C(=CC[C@@H]4[C@@]5(C)Cc6c([nH]c7ccc(Cl)cc67)C(C)(C)[C@@H]5CC[C@]43C)[C@@H]2C1 | 0% | 77.8% | – | – | 0% | –
27 | COC(=O)[C@H](Cc1ccccc1)NC(=O)[C@]12CCC(C)(C)C[C@H]1C1=CC[C@@H]3[C@@]4(C)Cc5c([nH]c6ccc(Cl)cc56)C(C)(C)[C@@H]4CC[C@@]3(C)[C@]1(C)CC2 | 77.4% | – | – | 95.2% | 70.7% | –
28 | CC1(C)CC[C@]2(C(=O)O)CC[C@]3(C)C(=CC[C@@H]4[C@@]5(C)Cc6nccnc6C(C)(C)[C@@H]5CC[C@]43C)[C@@H]2C1 | 1.8% | 16.4% | 97.6% | – | 93.2% | –
29 | CC[C@H](C)[C@H](NC(=O)[C@]12CCC(C)(C)C[C@H]1C1=CC[C@@H]3[C@@]4(C)Cc5nccnc5C(C)(C)[C@@H]4CC[C@@]3(C)[C@]1(C)CC2)C(=O)O | 73.7% | 16.2% | 52.6% | 81.3% | – | 109%
30 | COC(=O)[C@H](C)NC(=O)[C@]12CCC(C)(C)C[C@H]1C1=CC[C@@H]3[C@@]4(C)Cc5nc6ccccc6nc5C(C)(C)[C@@H]4CC[C@@]3(C)[C@]1(C)CC2 | 31.2% | 25.7% | 77% | – | 97.7% | –
